Laboratory results taken from US20030181333A1, “Herbicide combinations comprising specific sulfonylureas” (Bayer CropScience GmbH, priority 2002, published 2003).

How the values were obtained:
Type in all cases: in vivo
Settings in all cases: applied at 3-5 leaf stage, scored visually approx. 4-6 weeks after application, means of 2-3 repetitions, g of AS/ha: (A1 + B2)^S 12.5 + 6.25; Azur 800 + 40 + 200; B2 5; E) 60
Winter wheat = experiment: Outdoor trial: compatibility, % damage to crop
Method: (§1) Herbicidal action and compatibility in outdoor trials
(§2) The plants were sown and cultivated (fertilization, irrigation, etc.) as customary in practice on trial fields with naturally occurring weeds.
(§3) The experiments were designed as random tests of 2 plots of 5-10 m^2, with 2-3 repetitions. Application was carried out using plot sprayers at the 3-5 leaf stage. The test substances were made up in 100-600 liters of water/ha and applied with a pressure of 3 bar.
(§4) After the treatment (approx. 4-6 weeks after application), the herbidical activity of the active compounds or active compound mixtures was scored visually by comparing the treated plants with the untreated controls. The damage and development of all above-ground parts of the plants was recorded. Scoring was done on a percentage scale (100% action=all plants dead; 50% action=50% of the plants and green plant parts dead; 0% action=no discernible action or damage to crop species.
(§5) In the tables below, the results are given as the means of 2-3 repetitions, and the activity achieved when active compounds (A+B) and C) were applied independently is stated in brackets.

Galium aparine = experiment: Outdoor trial: herbicidal action, visual score
Method: as §1, §2, §3, §4, §5

Avena fatua = experiment: Outdoor trial: herbicidal action, visual score
Method: as §1, §2, §3, §4, §5

Structure (SMILES)	Winter wheat % Damage (Winter wheat)	% Activity Galium aparine (Galium aparine)	% Activity Avena fatua (Avena fatua)
COC(=O)c1ccc(I)cc1S(=O)(=O)[N-]C(=O)Nc1nc(C)nc(OC)n1.[Na+] [B2, iodosulfuron-methyl-sodium]	0%	25%	68%
CCOC(=O)[C@@H](C)Oc1ccc(Oc2nc3ccc(Cl)cc3o2)cc1 [E), fenoxaprop-(P)-ethyl]		0) %	70) %
